Experimental data reported in the supplement of paper PMC10307832.

How the values were obtained:
Test in all cases: relative viability (nuclei count vs DMSO), 5 days (fraction); higher = more cells survive
Irinotecan + Navitoclax = compound: CCc1c2c(nc3ccc(OC(=O)N4CCC(N5CCCCC5)CC4)cc13)-c1cc3c(c(=O)n1C2)COC(=O)[C@]3(O)CC [Irinotecan] + CC1(C)CCC(c2ccc(Cl)cc2)=C(CN2CCN(c3ccc(C(=O)NS(=O)(=O)c4ccc(N[C@H](CCN5CCOCC5)CSc5ccccc5)c(S(=O)(=O)C(F)(F)F)c4)cc3)CC2)C1 [Navitoclax] (partner 0.5 µM)
Summary of the method: (§1)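 Relative viability divides the nuclei count in treated wells by that in vehicle wells. Lung cancer cell lines were seeded in 1536-well plates, dosed by pin tool the next day, and fixed and stained after 5 days in one step with final 0.05% Triton X-100, 1% formaldehyde and 1 ug/ml Hoechst. Dosing was a single drug or a fixed anchor-drug dose plus five library-drug doses (not always all listed) in √10 steps, and values are medians of duplicate plates imaged at 4×.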

MK-8033 + Linsitinib = compound: Cn1cc(-c2cnc3ccc4ccc(CS(=O)(=O)NCc5ccccn5)cc4c(=O)c3c2)cn1 [MK-8033] + C[C@]1(O)C[C@@H](c2nc(-c3ccc4ccc(-c5ccccc5)nc4c3)c3c(N)nccn32)C1 [Linsitinib] (partner 1 µM)
Summary of the method: as §1

MK-8033 + Pemetrexed = compound: Cn1cc(-c2cnc3ccc4ccc(CS(=O)(=O)NCc5ccccn5)cc4c(=O)c3c2)cn1 [MK-8033] + Nc1nc2[nH]cc(CCc3ccc(C(=O)N[C@@H](CCC(=O)O)C(=O)O)cc3)c2c(=O)[nH]1 [Pemetrexed] (partner 0.2 µM)
Summary of the method: as §1

MK-8033 + Decitabine = compound: Cn1cc(-c2cnc3ccc4ccc(CS(=O)(=O)NCc5ccccn5)cc4c(=O)c3c2)cn1 [MK-8033] + Nc1ncn([C@H]2C[C@H](O)[C@@H](CO)O2)c(=O)n1 [Decitabine] (partner 2 µM)
Summary of the method: as §1

Cell Line: UMC-11
- relative viability (Irinotecan + Navitoclax; first compound 0.6325 µM): 0.235
- relative viability (Irinotecan + Navitoclax; first compound 2 µM): 0.208
- relative viability (Irinotecan + Navitoclax; first compound 6.325 µM): 0.163
- relative viability (Irinotecan + Navitoclax; first compound 20 µM): 0.147
- relative viability (MK-8033 + Linsitinib; first compound 0.02 µM): 0.973
- relative viability (MK-8033 + Linsitinib; first compound 0.06325 µM): 0.739
- relative viability (MK-8033 + Linsitinib; first compound 0.2 µM): 0.974
- relative viability (MK-8033 + Linsitinib; first compound 0.6325 µM): 0.969
- relative viability (MK-8033 + Linsitinib; first compound 2 µM): 0.979
- relative viability (MK-8033 + Pemetrexed; first compound 0.02 µM): 0.801
- relative viability (MK-8033 + Pemetrexed; first compound 0.06325 µM): 0.75
- relative viability (MK-8033 + Pemetrexed; first compound 0.2 µM): 0.66
- relative viability (MK-8033 + Pemetrexed; first compound 0.6325 µM): 0.815
- relative viability (MK-8033 + Pemetrexed; first compound 2 µM): 0.683
- relative viability (MK-8033 + Decitabine; first compound 0.02 µM): 0.593
- relative viability (MK-8033 + Decitabine; first compound 0.06325 µM): 0.424
- relative viability (MK-8033 + Decitabine; first compound 0.2 µM): 0.59
- relative viability (MK-8033 + Decitabine; first compound 0.6325 µM): 0.714
- relative viability (MK-8033 + Decitabine; first compound 2 µM): 0.612
